Experiments:
[1] = Water activity study at 25° C. (acetone/water); format: physicochemical; conditions: Acetone & water, protected by N2, 5 days
Description: Water activity experiments were conducted at 25° C. in 10 different water activities with 1 set of organic solvent/water mixtures (acetone/water) to determine critical water activity between anhydrate and hydrate.

[2] = Equilibration with solvents at 25° C.
Description: (§1) About 50 mg of drug substance was equilibrated in suitable amount of solvent at 25° C. for 2 weeks with a stirring plate (Table 30). Obtained suspension was filtered. The solid part (wet cake) was investigated by XRPD. When differences were observed, additional investigations were performed (e.g. DSC, TGA. FT-IR, PLM/SEM, etc.).
[…] The solid part (wet cake) was investigated by XRPD. If differences are observed, additional investigation will be performed (e.g. DSC, TGA, HPLC, etc.)

[3] = Equilibration with solvents at 50° C. for 1 week
Description: as §1, with “minimal” for “suitable”, “50°” for “25°”, “1 week” for “2 weeks”, “32).” for “30).”

[4] = Precipitation by addition of anti-solvent; conditions: anti-solvent Heptane
Description: About 50 mg of drug substance was dissolved in a good solvent. Anti-solvent was added into the obtained solutions slowly. Precipitates were collected by filtration. The solid part (wet cake) was investigated by XRPD. When differences were observed, additional investigations were performed (e.g. DSC, TGA. FT-IR, PLM/SEM, etc.).
Scale up: About 200 mg of drug substance was dissolved in EtOAc. Heptane was added to the obtained solutions. The solid part (wet cake) was investigated by XRPD. When differences were observed, additional investigations were performed (e.g. DSC, TGA. FT-IR, PLM/SEM, etc.)

[5] = Crystallization at room temperature by slow evaporation
Description: Combined with approximate solubility experiment, solubility samples were filtered by 0.45 μm nylon filter. Obtained solutions were slow evaporated at ambient condition. Solid residues were examined for their polymorphic form (Table 34).
Scale up: About 200 mg of drug substance will be dissolved in EtOAc. Obtained solutions shall be exposed to ambient condition (protected by N2) to allow slow evaporation of solvents (Table 35).

[6] = Crystallization from hot saturated solutions by slow cooling; conditions: slow cooling 50° C. to 5° C. at 0.1° C./min
Description: Approximate 100 mg of drug substance was dissolved in the minimal amount of selected solvents at 50° C. Obtained solutions were cooled to 5° C. at 0.1° C./min. Precipitates were collected by filtration. The solid part (wet cake) was investigated by XRPD. When differences were observed, additional investigations were performed (e.g. DSC, TGA. FT-IR, PLM/SEM, etc.).
Scale up: About 200 mg of drug substance will be dissolved in MEK. Obtained solutions will be applied with cooling rate of 0.1° C./min for slow cooling.

[7] = Scale up experiment of Pattern A and Pattern D; conditions: Slow cooling, MEK
Description: About 6 g API were used for Pattern A and Pattern D scale up.
Obtained suspension was filtered. The solid part (wet cake) was investigated by XRPD.
About 3 g drug substance were equilibrated in 8 mL of solvent (Water: Acetone, 10:90, v:v) at 25° C. for 1 week with a stirring plate. Obtained suspension was filtered. The solid part (wet cake) was investigated by XRPD.

[8] = 2 weeks, Heptane/Acetone, 80/20
[9] = 5 days, protected by N2, Acetone
[10] = 5 days, protected by N2, Heptane
[11] = 5 days, protected by N2, Toluene

In the case of `CCC(=O)[O][Mn][O]C(=O)CC.c1cc2nc(c1)CN[C@H]1CCCC[C@@H]1NCCN[C@H]1CCCC[C@@H]1NC2` [API], the Comments ([1]; a.w. 0) is reported as “API degradation”, the purity ([1]; a.w. 0) is reported as 97.34% and the XRPD ([1]; a.w. 0.103) is reported as “Pattern A”. The purity ([1]; a.w. 0.103) was “Purity 98.27%”, the XRPD ([1]; a.w. 0.206) was “Pattern A” and the purity ([1]; a.w. 0.206) was “Purity 99.18%”. The XRPD ([1]; a.w. 0.301) was “Pattern D”, the purity ([1]; a.w. 0.301) was “Purity 99.77%” and the XRPD ([1]; a.w. 0.400) was “Pattern D”. The purity ([1]; a.w. 0.400) was “Purity 99.49%”, the XRPD ([1]; a.w. 0.501) was “Pattern D” and the purity ([1]; a.w. 0.501) was “Purity 99.33%”. The XRPD ([1]; a.w. 0.603) was “Pattern D”, the purity ([1]; a.w. 0.603) was “Purity 99.19%” and the Comments ([1]; a.w. 0.703) was “Clear solution”. The Comments ([1]; a.w. 0.803) was “Clear solution”, the Comments ([1]; a.w. 0.901) was “Clear solution” and the Comments ([2]; 2 weeks, EtOAc) was “API degradation,”. The purity ([2]; 2 weeks, EtOAc) was “purity 75.69%”, the purity ([2]; 2 weeks, Heptane) was “Purity 99.02%” and the Comments [2, 8] was “API degradation,”. For the same compound, the purity [2, 8] was “purity 94.83%”, the Comments ([2]; 2 weeks, Heptane/EtOAc, 80/20) was “API degradation,” and the purity ([2]; 2 weeks, Heptane/EtOAc, 80/20) was “purity 92.64%”. For the same compound, the Comments ([2]; 2 weeks, IPAC) was “API degradation,”, the purity ([2]; 2 weeks, IPAC) was “purity 84.49%” and the Comments ([2]; 2 weeks, MTBE) was “API degradation,”. The purity ([2]; 2 weeks, MTBE) was “purity 88.12%”, the Comments ([2]; 2 weeks, MTBE/Acetone, 80/20c) was “API degradation,” and the purity ([2]; 2 weeks, MTBE/Acetone, 80/20c) was “purity 87.39%”. The Comments ([2]; 2 weeks, MTBE/EIOAc, 80/20) was “API degradation,”, the purity ([2]; 2 weeks, MTBE/EIOAc, 80/20) was “purity 89.32%” and the Comments [2, 9] was “API degradation”. For the same compound, the purity [2, 9] was 98.41%, the Comments ([2]; 5 days, protected by N2, EtOAc) was “API degradation” and the purity ([2]; 5 days, protected by N2, EtOAc) was 97.78%. The Comments [2, 10] was “API degradation”, the purity [2, 10] was 99.85% and the Comments ([2]; 5 days, protected by N2, IPAC) was “API degradation”. The purity ([2]; 5 days, protected by N2, IPAC) was 98.30%, the Comments ([2]; 5 days, protected by N2, MEK) was “API degradation” and the purity ([2]; 5 days, protected by N2, MEK) was 97.52%. For the same compound, the Comments ([2]; 5 days, protected by N2, MTBE) was “API degradation”, the purity ([2]; 5 days, protected by N2, MTBE) was 98.62% and the Comments [2, 11] was “API degradation”. For the same compound, the purity [2, 11] was 92.88%, the Comments ([3]; Heptane) was “API degradation” and the purity ([3]; Heptane) was 94.65%. The Comments ([3]; Heptane/Acetone, 80/20) was “API degradation”, the purity ([3]; Heptane/Acetone, 80/20) was 95.63% and the Comments ([3]; Heptane/EtOAc, 80/20) was “API degradation”. The purity ([3]; Heptane/EtOAc, 80/20) was 85.84%, the Comments ([3]; Heptane/EtOH, 80/20) was “API was soluble in the solvent” and the Comments ([3]; Heptane/IPA, 80/20) was “API was soluble in the solvent”. For the same compound, the Comments ([3]; MTBE) was “API degradation”, the purity ([3]; MTBE) was 92.26% and the Comments ([3]; MTBE/Acetone, 80/20) was “API degradation”. The purity ([3]; MTBE/Acetone, 80/20) was 93.80%, the Comments ([3]; MTBE/EtOAc, 80/20) was “API degradation” and the purity ([3]; MTBE/EtOAc, 80/20) was 87.67%. The Comments ([3]; MTBE/EtOH, 80/20) was “API was soluble in the solvent”, the Comments ([3]; MTBE/IPA, 80/20) was “API was soluble in the solvent” and the purity ([4]; solvent Acetone) was “purity 99.93%”. The purity ([4]; solvent EtOAc) was “purity 99.95%”, the Comments ([5]; protect with N2, 1,4-Dioxane) was “API degradation, purity” and the purity ([5]; protect with N2, 1,4-Dioxane) was 97.76%. The Comments ([5]; protect with N2, ACN) was “API degradation, purity”, the purity ([5]; protect with N2, ACN) was 98.98% and the purity ([5]; protect with N2, Acetone) was “Purity 99.39%”. The purity ([5]; protect with N2, DCM) was “Purity 99.93%”, the purity ([5]; protect with N2, EtOAc) was “Purity 99.42%” and the purity ([5]; protect with N2, Ethanol) was “Purity 99.65%”. For the same compound, the purity ([5]; protect with N2, IPA) was “Purity 99.63%”, the purity ([5]; protect with N2, IPAC) was “Purity 99.90%” and the purity ([5]; protect with N2, MEK) was “Purity 99.33%”. The purity ([5]; protect with N2, MTBE) was “Purity 99.88%”, the purity ([5]; protect with N2, Methanol) was “Purity 99.92%” and the purity ([5]; protect with N2, THF) was “Purity 99.12%”. The Comments ([5]; protect with N2, Toluene) was “API degradation, purity”, the purity ([5]; protect with N2, Toluene) was 96.47% and the Comments ([6]; Acetone) was “API was soluble in the solvent”. The purity ([6]; EtOAc) was “White solid, purity 100%”, the Comments ([6]; IPA) was “API was soluble in the solvent” and the Comments ([6]; IPAC) was “API was soluble in the solvent”. The purity ([6]; MEK) was “White solid, purity 100%”, the Comments ([6]; Water) was “API was soluble in the solvent” and the Comments [7] was “API degradation, purity”. The purity [7] was 93.4%.

From patent US20250073244A1, “CRYSTALLINE FORMS OF PENTAAZA MACROCYCLIC RING COMPLEX” (Galera Labs, LLC, priority 2023, published 2025)
